Measurements reported in patent publication US8563547B2, “(6,7-dihydro-2-nitro-5H-imidazol[2,1-b][1,3]oxazin-6-yl) amide compounds, preparation methods and uses thereof” (Shanghai Sun-Sail Pharmaceutical Science & Technology Co., …, priority 2010, dated 2013).
Converted amounts (≈) assume the structure as drawn.

Experiments:
Assay in all cases: microbe, parasite or virus in culture
Format in all cases: cell-based, Mycobacterium tuberculosis
[1] = test system: strain 242: resistant to isoniazide (WHO QC bacterium); settings: for MIC: Mycobacterium tuberculosis, read-out: drug-resistance bacteria MIC, 242 (H mono-resistance); for MIC value, times as that of PA-824, isoniazide resistance 242: strain 242, relative to PA-824
[2] = test system: strain 261: resistant to rifampicin (WHO QC bacterium); settings: for MIC: Mycobacterium tuberculosis, read-out: drug-resistance bacteria MIC, 261 (R mono-resistance); for MIC value, times as that of PA-824, rifampicin resistance 261: strain 261, relative to PA-824
[3] = test system: strain 246: resistant to streptomycin (WHO QC bacterium); settings: for MIC: Mycobacterium tuberculosis, read-out: drug-resistance bacteria MIC, 246 (S mono-resistance); for MIC value, times as that of PA-824, streptomycin resistance 246: strain 246, relative to PA-824

Row | Structure (SMILES) | MIC [1] | MIC value, times as that of PA-824, isoniazide resistance 242 [1] | MIC [2] | MIC value, times as that of PA-824, rifampicin resistance 261 [2] | MIC [3] | MIC value, times as that of PA-824, streptomycin resistance 246 [3]
1 | O=C(CCN1CCC(Oc2ccc(OC(F)(F)F)cc2)CC1)N[C@@H]1COc2nc([N+](=O)[O-])cn2C1 [Compound 22, (S)-N-(6,7-dihydro-2-nitro-5H-imidazo [2,1-b][1,3]oxazin-6-yl)-3-(4-(4-(trifluoromethoxy)phenoxy)piperid-1-yl)propanamide] | 0.5 µg/mL (≈ 1 µM) | 2 times | < 0.0312 µg/mL | 16 times | 0.0625 µg/mL (≈ 0.125 µM) | 8 times
2 | O=[N+]([O-])c1cn2c(n1)OC[C@@H](OCc1ccc(OC(F)(F)F)cc1)C2 [PA-824, reference compound] | 1 µg/mL (≈ 2.78 µM) |  | 0.5 µg/mL (≈ 1.39 µM) |  | 0.5 µg/mL (≈ 1.39 µM) | 
3 | O=C(CN1CCC(Oc2ccc(OC(F)(F)F)cc2)CC1)N[C@@H]1COc2nc([N+](=O)[O-])cn2C1 [Compound 1, (S)-N-(6,7-dihydro-2-nitro-5H-imidazo [2,1-b][1,3]oxazin-6-yl)-2-(4-(4-(trifluoromethoxy)phenoxy)piperid-1-yl)acetamide] | 0.5 µg/mL (≈ 1.03 µM) | 2 times | < 0.0312 µg/mL | 16 times | < 0.0312 µg/mL | 16 times
